Assay results taken from US12265087B2, “Olfactory receptor as microglia marker and use thereof” (DAEGU GYEONGBUK INSTITUTE OF SCIENCE AND TECHNOLOGY, priority 2019, dated 2025).
One block for each compound: values may come before it.

Experiments:
[1] = biological target: T1, Olfr110 (Mus musculus, UniProt A2RT31); experiment: Luciferase assay in Hana3A cells transfected with Olfr110; format: cell-based; details: for reactivity with Olfr110 (relative luciferase activity): Hana3A cells; for binding to Olfr110: furan derivatives
T1 construct: Full-length odorant receptor genes from mouse and human genomic DNAs were amplified using appropriate primers; Lucy (N); Flag (N); Rho (N); expressed in transfected cells; host or cells: Hana3A cells, co-transfected with RTP1S, pCRELuc and pRL-SV40
T1 sequence (A2RT31 1-317): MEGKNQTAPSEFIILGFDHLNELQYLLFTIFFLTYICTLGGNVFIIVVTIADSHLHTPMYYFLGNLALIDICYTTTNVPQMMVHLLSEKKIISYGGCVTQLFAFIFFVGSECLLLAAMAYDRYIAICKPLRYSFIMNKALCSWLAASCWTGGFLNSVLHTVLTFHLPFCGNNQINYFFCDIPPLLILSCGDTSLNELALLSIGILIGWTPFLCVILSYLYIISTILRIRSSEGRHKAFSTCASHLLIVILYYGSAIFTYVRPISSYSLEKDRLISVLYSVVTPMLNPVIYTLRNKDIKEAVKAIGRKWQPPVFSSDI
Description: (§1) A Dual-Glo luciferase assay system (#E2940; Promega) was used for OR ligand screening. More specifically, Hana3A cells were seeded in white polystyrene 96-well plates (#353296; BD Biosciences) one day before transfection. pCRELuc (1 μg; #219076; Agilent Technologies), pRL-SV40 (1 μg; #E2231; Promega), RTP1S (1 μg), and OR (6 μg; or Mock) vectors were transfected for 24 hours in each plate. Analysis was performed using Lipofectamine 2000 (#11668-019; Thermo Fisher Scientific) according to the manufacturer's protocols. Transfected cells were stimulated at 37° C. for 4 hours with various concentrations of diluted odorants in a CD293 medium (#11913-019; Thermo Fisher Scientific). The activity of luciferase was normalized to that of Renilla luciferase. Luminescence was measured using a SpectraMax L microplate reader (Molecular Devices).

[2] = test system: Olfr111; experiment: Luciferase assay in Hana3A cells transfected with Olfr111; format: cell-based, mouse; details: for reactivity with Olfr111 (relative luciferase activity): Hana3A cells; for binding to Olfr1111: furan derivatives
Description: as §1

[3] = test system: primary microglia; experiment: ROS / superoxide generation in primary microglia; format: cell-based, mouse; details: for ROS generation after 2-PF: inhibitor pretreatment, then 2-PF; for ROS generated with 2-PF co-treatment: Sup MOI 5 + 500 μM 2-PF, 2-EF 0, 100, 300, 500 μM
Description: Superoxide concentrations were calculated by measuring the degree ofcytochrome c reduction using a VersaMax microplate reader (Babior et al., 1973). Microglia were cultured in a 96 well plate at a concentration of 1.0×10^5 cells/well, and the microglia were activated by a 10 μM ATP solution containing 2-PF and cytochrome c, or a solution in which Sup is mixed with cytochalasin B (5 μM; #C66762; Sigma Aldrich). The concentration of ROS was measured through a change in light absorption every minute for 25 minutes at 550 nm.
ROS levels were measured using 2′,7′-dichlorodihydrofluorescein diacetate (DCF-DA, #D6883; Sigma Aldrich) by a previously described method with minor modifications (Bae et al., 2001). More specifically, primary microglia were seeded in 24-well plates (5.0×10^5 cells/well) for 24 hours, and then treated with 10 μM DCF-DA at 37° C. for 30 minutes. One plate was treated with 2-PF, and the other one was not. The cells in each well were measured using a flow cytometer (FACS Accuri™ C6; BD Biosciences). MFI was measured as described above.

[4] = test system: Olfr920, Olfr1417 and Olfr99; details: also react with MOCK
[5] = test system: primary microglia; experiment: Cytokine ELISA of primary microglia; format: cell-based, mouse; details: inhibitor pretreatment, then 2-PF
Description: The levels of expression of cytokines Tnf, i16 and I11b secreted from microglia were measured according to the manufacturer's protocols. More specifically, the levels were measured by ELISA 24 hours after treatment with 2-PF or a cell supernatant. The ELISA kit was purchased from BD Biosciences (#DY410 for Tnf; #DY406 for I16; #DY401 for I11b).

[6] = test system: primary microglia; experiment: Western blotting of phosphorylated signaling proteins in primary microglia; format: cell-based, mouse; details: inhibitor pre-cultivation, then 2-PF
Description: Cells and tissue were prepared using the T-PER® reagent (#78510; Thermo Fisher Scientific) containing protease inhibitors (#04-693-116-001; Roche Molecular Diagnostics) and DMSF (Sigma-Aldrich), and then lysed using a MagNA lyser (Roche Molecular Diagnostics). A total protein extract was quantified by the Bradford assay. The samples were dissolved in 7.5% SDS-PAGE or 4-20% gradient mini-PROTEIN TGX Precast Gels (#456-1064; Bio-Rad Laboratories), and then blotted on nitrocellulose membranes (#10600002; GE Healthcare). Afterward, the membranes were blocked for 1 hour in 5% non-fat dry milk and TBST, 0.1% TWEEN® 20 (#P9416; Sigma-Aldrich), and Tris-buffered saline, and then incubated with primary antibodies at 4° C. overnight. The antibodies were as follows: Olfr110 (36 kDa; 1:1,000; #ab177327; Abcam), anti-rhodopsin (39 kDa; 1:1,000; #MABN15; Millipore), CREB (43 kDa; 1:1,000; #9197; Cell Signaling Technology), phospho-CREB (43 kDa; 1:1,000; #9198; Cell Signaling Technology), ERK (44 kDa; 1:1,000; #sc094; Santa Cruz), phospho-ERK (42, 44 kDa; 1:1,000; #sc-7383; Santa Cruz), phospho-Akt (60 kDa; 1:500; sc-293125; Santa Cruz), phospho-JNK (46, 54 kDa; 1:500; sc-6254; Santa Cruz), phosphor-p38 (38 kDa; 1:1,000; sc-7973; Santa Cruz), and beta-Actin (45 kDa; 1:10,000; #4967; Cell Signaling Technology). In addition, as isotype-matched horseradish peroxidase-conjugated secondary antibodies, anti-rabbit IgG (#711-035-152; Jackson ImmunoResearch) diluted 1:100,000, and anti-mouse IgG (#715-035-150; Jackson ImmunoResearch) diluted 1:40,000 in TBST were used at room temperature for 2 hours. Immunoreactive protein bands were obtained using SuperSignal™ West Pico Chemiluminescent Substrate (#34080; Thermo Fisher Scientific).

Compound: O=C1OC2(c3ccccc31)c1ccc(O)c(O)c1Oc1c2ccc(O)c1O [gallein, reference compound]
ROS generation after 2-PF [3]: similarly inhibited

Compound: Cc1ccoc1C [2,3-dimethylfuran]
binding to Olfr110 [1]: do not bind
binding to Olfr1111 [2]: do not bind

Compound: CCCc1ccco1 [2-propylfuran]
reactivity with Olfr110 (relative luciferase activity) [1]: showed reactivity
reactivity with Olfr111 (relative luciferase activity) [2]: showed reactivity

Compound: COc1ccc2c(c1)CC[C@@H]1[C@@H]2CC[C@]2(C)[C@@H](NCCCCCCN3C(=O)C=CC3=O)CC[C@@H]12 [U73122, reference compound]
ROS generation after 2-PF [3]: completely inhibited
Tnf and Il6 cytokine levels after 2-PF [5]: relatively less decrease

Compound: COc1cccc(-c2cc(=O)c3ccccc3o2)c1N [pd98059]
CREB and ERK phosphorylation [6]: greatly decreased
Tnf and Il6 cytokine levels after 2-PF [5]: relatively less decrease

Compound: Nc1ncnc2c1ncn2C1CCCO1 (stereo not drawn) [SQ22536]
CREB and ERK phosphorylation [6]: greatly decreased
Tnf and Il6 cytokine levels after 2-PF [5]: great decrease

Compound: CCc1ccco1 [2-EF, 2-ethylfuran]
amount of ROS generated by 100 MOI Sup ([3]; 2-EF pretreated at 0, 100, 300, 500 μM): diminished as the 2-EF level increases
ROS generated with 2-PF co-treatment [3]: the higher the concentration of 2-EF added, the lower the concentration of the generated ROS
ROS generated with 2-PF co-treatment ([3]; listed as 2-ethylfuran): reduced
mode of action at Olfr110 [1]: competitive inhibitor (antagonist)
2-PF activity on Olfr110 with co-treatment ([1]; 2-PF fixed at 300 μM, 2-EF 1 μM to 10 mM): 2-PF activity decreases
Kd ([1]; 2-PF fixed at 300 μM, 2-EF 1 μM to 10 mM, read-out: Kd (competitive activity against 2-PF)): 120 µM
binding to Olfr110 [1]: do not bind
binding to Olfr1111 [2]: do not bind

Compound: O=S(=O)(NCCNC/C=C/c1ccc(Br)cc1)c1cccc2cnccc12 [H-89]
Tnf and Il6 cytokine levels after 2-PF [5]: great decrease

The next lines start with results.

reactivity with Olfr110 (relative luciferase activity) [1]: showed reactivity
Compound: CCCCc1ccco1 [2-butylfuran]
reactivity with Olfr111 (relative luciferase activity) [2]: showed reactivity

reactivity with Olfr110 (relative luciferase activity) [1]: showed reactivity
Compound: CC(C)(C)c1ccco1 [2-t-butylfuran]
reactivity with Olfr111 (relative luciferase activity) [2]: showed reactivity

binding to Olfr110 [1]: do not bind
Compound: CCCCCCCc1ccco1 [2-heptylfuran]
binding to Olfr1111 [2]: do not bind

binding to Olfr110 [1]: do not bind
Compound: Cc1ccco1 [2-methylfuran]
binding to Olfr1111 [2]: do not bind

reactivity of the other three receptors [4]: non-specific reaction
Compound: CCO [ethanol]

reactivity with Olfr110 (relative luciferase activity) [1]: showed reactivity
binding to Olfr110 [1]: do not bind
Compound: CCCCCCc1ccco1 [2-hexylfuran]
reactivity with Olfr111 (relative luciferase activity) [2]: showed reactivity
binding to Olfr1111 [2]: do not bind
